# Article PMC11844072, “Novel 5,6-dichlorobenzimidazole derivatives as dual BRAFWT and BRAFV600E inhibitors: design, synthesis, anti-cancer activity and molecular dynamics simulations” (BMC Chemistry, 2025)
# Experiments:
# Assay in all cases: NCI 5-dose assay
# Type in all cases: cell-based
# A498 = details: Homo sapiens; A498, Renal cancer
# Description: (§1) The synthesized dichlorobenzimidazoles 10a–p were assayed for their influence on divers cancer cell lines according to the method presented in the Additional file A.
# (§2) 5. Screening of cytotoxic activity against a panel of sixty human tumor cell lines
# (§3) The selected compounds by NCI were evaluated for their anticancer activity in a two-stage process. First, these compounds were screened against the full NCI 60 cell lines panel at a single high dose of 10 µM. Then, the output from the single dose screen is reported as a mean graph. […]
# (§4) at five different minimal concentrations.
# (§5) Assay protocol. The human tumor cell lines of the cancer screening panel are grown in RPMI 1640 medium containing 5% fetal bovine serum and 2 mM L-glutamine. For a typical screening experiment, cells are inoculated into 96 well microtiter plates in 100 µL at plating densities ranging from 5000 to 40,000 cells/well depending on the doubling time of individual cell lines. After cell inoculation, the microtiter plates are incubated at 37 °C, 5% CO 2, 95% air and 100% relative humidity for 24 h prior to addition of the experimental drugs.
# (§6) After 24 h, two plates of each cell line are fixed in situ with TCA, to represent a measurement of the cell population for each cell line at the time of drug addition (Tz). The experimental drugs are solubilized in dimethyl sulfoxide at 400-fold the desired final maximum test concentration and stored frozen prior to use. At the time of drug addition, an aliquot of frozen concentrate is thawed and diluted to twice the desired final maximum test concentration with complete medium containing 50 µg/mL gentamicin. Additional four, 10-fold or ½ log serial dilutions are made to provide a total of five drug concentrations plus control.
# (§7) Aliquots of […] of these different drug dilutions are added to the appropriate microtiter wells already containing […] of medium, resulting in the required final drug concentrations.
# (§8) Following drug addition, the plates are incubated for an additional 48 h at 37 °C, 5% CO 2, 95% air, and 100% relative humidity. For adherent cells, the assay is terminated by the addition of cold TCA.
# (§9) Cells are fixed in situ by the gentle addition of 50 µL of cold 50% (w/v) TCA (final concentration, 10% TCA) and incubated for 60 min at 4 °C. The supernatant is discarded, and the plates are washed five times with tap water and air dried. Sulforhodamine B (SRB) solution ([…]) at 0.4% (w/v) in 1% acetic acid is added to each well, and plates are incubated for 10 min at room temperature. After staining, unbound dye is removed by washing five times with 1% acetic acid and the plates are air dried. Bound stain is subsequently solubilized with 10 mM trizma base, and the absorbance is read on an automated plate reader at a wavelength of 515 nm. For suspension cells, the methodology is […]
# (§10) the same except that the assay is terminated by fixing settled cells at the bottom of the wells by gently adding 50 µl of 80% TCA (final concentration, 16% TCA). Using the seven absorbance measurements [time zero, (Tz), control growth, (C), and test growth in the presence of drug at the five concentration levels (Ti)], the percentage growth is calculated at each of the drug concentrations […]
# (§11) Percentage growth inhibition is calculated as: [(Ti Tz)/(C–Tz)] x 100 for concentrations for which Ti>/=Tz and [(Ti-Tz)/Tz] x 100 for concentrations for which Ti < Tz.
# (§12) Three dose response parameters are calculated for each experimental agent. Growth […]
# (§13) concentration resulting in a 50% reduction in the net protein increase (as measured by SRB staining) in control cells during the drug incubation. The drug concentration resulting in total growth inhibition (TGI) is calculated from Ti = Tz. […]
# (§14) reduction in the measured protein at the end of the drug treatment as compared to that at the beginning) indicating a net loss of cells following treatment is calculated from [(Ti–Tz)/Tz] x 100 =
# (§15) _50. Values are calculated for each of these three parameters if the level of activity is reached; […]
# A549/ATCC = details: Homo sapiens, Non-small cell lung cancer
# Description: as §1, §2, §3, §4, §5, §6, §7, §8, §9, §10, §11, §12, §13, §14, §15
# CCRF-CEM = details: Homo sapiens, Leukemia
# Description: as §1, §2, §3, §4, §5, §6, §7, §8, §9, §10, §11, §12, §13, §14, §15
# COLO 205 = details: Homo sapiens; COLO 205, Colon cancer
# Description: as §1, §2, §3, §4, §5, §6, §7, §8, §9, §10, §11, §12, §13, §14, §15
# DU-145 = details: Homo sapiens; DU-145, Prostate cancer
# Description: as §1, §2, §3, §4, §5, §6, §7, §8, §9, §10, §11, §12, §13, §14, §15
# HCT-15 = details: Homo sapiens; HCT-15, Colon cancer
# Description: as §1, §2, §3, §4, §5, §6, §7, §8, §9, §10, §11, §12, §13, §14, §15
# HS 578T = details: Homo sapiens, Breast cancer
# Description: as §1, §2, §3, §4, §5, §6, §7, §8, §9, §10, §11, §12, §13, §14, §15
# K-562 = details: Homo sapiens, K562; K-562, Leukemia
# Description: as §1, §2, §3, §4, §5, §6, §7, §8, §9, §10, §11, §12, §13, §14, §15
# KM12 = details: Homo sapiens; KM12, Colon cancer
# Description: as §1, §2, §3, §4, §5, §6, §7, §8, §9, §10, §11, §12, §13, §14, §15
# LOX IMVI = details: Homo sapiens, Melanoma
# Description: as §1, §2, §3, §4, §5, §6, §7, §8, §9, §10, §11, §12, §13, §14, §15
# MDA-MB-435 = details: Homo sapiens; MDA-MB-435, Melanoma
# Description: as §1, §2, §3, §4, §5, §6, §7, §8, §9, §10, §11, §12, §13, §14, §15
# MDA-MB-468 = details: Homo sapiens; MDA-MB-468, Breast cancer
# Description: as §1, §2, §3, §4, §5, §6, §7, §8, §9, §10, §11, §12, §13, §14, §15
# NCI-H322M = details: Homo sapiens, Non-small cell lung cancer
# Description: as §1, §2, §3, §4, §5, §6, §7, §8, §9, §10, §11, §12, §13, §14, §15
# NCI/ADR-RES = details: Homo sapiens, Ovarian cancer
# Description: as §1, §2, §3, §4, §5, §6, §7, §8, §9, §10, §11, §12, §13, §14, §15
# PC-3 = details: Homo sapiens; PC-3, Prostate cancer
# Description: as §1, §2, §3, §4, §5, §6, §7, §8, §9, §10, §11, §12, §13, §14, §15
# RPMI-8226 = details: Homo sapiens; RPMI-8226, Leukemia
# Description: as §1, §2, §3, §4, §5, §6, §7, §8, §9, §10, §11, §12, §13, §14, §15
# SNB-75 = details: Homo sapiens; SNB-75, CNS cancer
# Description: as §1, §2, §3, §4, §5, §6, §7, §8, §9, §10, §11, §12, §13, §14, §15
# SR = details: Homo sapiens, Leukemia
# Description: as §1, §2, §3, §4, §5, §6, §7, §8, §9, §10, §11, §12, §13, §14, §15
# T-47D = details: Homo sapiens, T47D, Breast cancer
# Description: as §1, §2, §3, §4, §5, §6, §7, §8, §9, §10, §11, §12, §13, §14, §15
# TK-10 = details: Homo sapiens; TK-10, Renal cancer
# Description: as §1, §2, §3, §4, §5, §6, §7, §8, §9, §10, §11, §12, §13, §14, §15
# UACC-257 = details: Homo sapiens; UACC-257, Melanoma
# Description: as §1, §2, §3, §4, §5, §6, §7, §8, §9, §10, §11, §12, §13, §14, §15
# UACC-62 = details: Homo sapiens; UACC-62, Melanoma
# Description: as §1, §2, §3, §4, §5, §6, §7, §8, §9, §10, §11, §12, §13, §14, §15
# UO-31 = details: Homo sapiens; UO-31, Renal cancer
# Description: as §1, §2, §3, §4, §5, §6, §7, §8, §9, §10, §11, §12, §13, §14, §15
Structure (SMILES),GI50 (A498),GI50 (A549/ATCC),GI50 (CCRF-CEM),GI50 (COLO 205),GI50 (DU-145),GI50 (HCT-15),GI50 (HS 578T),GI50 (K-562),GI50 (KM12),GI50 (LOX IMVI),GI50 (MDA-MB-435),GI50 (MDA-MB-468),GI50 (NCI-H322M),GI50 (NCI/ADR-RES),GI50 (PC-3),GI50 (RPMI-8226),GI50 (SNB-75),GI50 (SR),GI50 (T-47D),GI50 (TK-10),further results
"COC(=O)COc1ccc(C=NNC(=O)Cn2c(-c3ccc(OC)cc3)nc3cc(Cl)c(Cl)cc32)cc1 [Compound 10h, Methyl-2-(4-((2-(2-(5,6-dichloro-2-(4-methoxyphenyl)-1H-benzo[d]imidazol-1-yl)acetyl)hydrazono)methyl)phenoxy)acetate]",15.4 µM,> 82.5 µM,4.78 µM,16.5 µM,1.67 µM,11.2 µM,10.1 µM,11.3 µM,> 82.5 µM,6.83 µM,14.8 µM,1.68 µM,21.3 µM,5.22 µM,4.45 µM,71.2 µM,2.14 µM,2.8 µM,2.68 µM,13.2 µM,GI50 (UACC-257): 12.7 µM; GI50 (UACC-62): 10.1 µM; GI50 (UO-31): 9.74 µM
"COC(=O)COc1cc(C=NNC(=O)Cn2c(-c3ccc(OC)cc3)nc3cc(Cl)c(Cl)cc32)ccc1OC [Compound 10o, Methyl-2-(5-((2-(2-(5,6-dichloro-2-(4-methoxyphenyl)-1H-benzo[d]imidazol-1-yl)acetyl)hydrazono)methyl)-2-methoxyphenoxy)acetate]",> 100 µM,> 100 µM,> 100 µM,> 100 µM,4.79 µM,> 100 µM,2.68 µM,> 100 µM,> 100 µM,> 100 µM,> 100 µM,4.4 µM,60.4 µM,81.2 µM,17.2 µM,> 100 µM,14.4 µM,3 µM,12.7 µM,18.3 µM,GI50 (UACC-257): 38.7 µM; GI50 (UACC-62): 14.5 µM; GI50 (UO-31): 1.82 µM
"COC(=O)COc1ccc(C=NNC(=O)Cn2c(-c3ccc(OC)cc3)nc3cc(Cl)c(Cl)cc32)cc1OC [Compound 10p, Methyl-2-(4-((2-(2-(5,6-dichloro-2-(4-methoxyphenyl)-1H-benzo[d]imidazol-1-yl)acetyl)hydrazono)methyl)-2-methoxyphenoxy)acetate]",11.6 µM,> 72.5 µM,> 72.5 µM,18.2 µM,1.9 µM,> 72.5 µM,4.34 µM,> 72.5 µM,> 72.5 µM,31.2 µM,22.9 µM,1.48 µM,22.2 µM,3.05 µM,4.38 µM,> 72.5 µM,1.73 µM,2.15 µM,4.47 µM,12.6 µM,GI50 (UACC-257): 14.7 µM; GI50 (UACC-62): 6.52 µM; GI50 (UO-31): 8.11 µM
